Reference: paper PMC8952231 (Pharmaceutics, 2022)

Tests used:
[1] = Randomized, open-label, single-dose crossover pharmacokinetic study; plasma concentrations by LC-MS/MS, non-compartmental analysis; format: in vivo, human; conditions: for Intra-Participant CV% of AUCinf / Intra-Participant CV% of AUClast / Intra-Participant CV% of Cmax: IC vs. FCDP crossover; for AUC(0-inf) / AUC(0-t) / Cmax / Tmax / half-life: male, human, plasma
From the text: Sixty-three healthy male volunteers (age, 19–45 years; body weight > 50 kg) agreed to participate in the study and signed a written informed consent form. Only male participants were recruited to avoid the potential risk of pregnancy. The participants were considered healthy after a detailed physical examination by physicians involving 12-lead electrocardiographs (ECG), vital sign assessments, and laboratory evaluations, including blood chemistry, hematology, and urinalysis. […] The study protocol was approved (IRB No.2019AN0538, clinicaltrial.gov; NCT05066516) by the Institutional Review Board of Anam Hospital, Korea University Medical Center (Seoul, Korea), and all procedures were conducted following the principles described in the Declaration of Helsinki and Good Clinical Practice guidelines.
This study was conducted as a randomized, open-label, single-dose crossover study. All participants were randomly allocated to group A (period 1: individual components (ICs), period 2: FCDP) or group B (period 1: FCDP, period 2: ICs). […] All medications were biopharmaceutical classification system (BCS) III drugs with high solubility and low permeability. […] For FCDP, microcrystalline cellulose and copovidone were used as major excipients.
On day 1 (the day of each drug administration), serial blood samples were drawn immediately before (0 h) and 0.25, 0.5, 0.75, 1, 1.5, 2, 2.5, 3, 4, 6, 8, 12, 24, 48, and 72 h after each dosing to assess the pharmacokinetics of each drug. The collected samples were centrifuged (at 1977× g, 4 °C) for 15 min, and the extracted plasma samples were stored frozen at −60 °C until they were analyzed.
For dapagliflozin analysis, 100 µL plasma was added to a glass tube containing an internal standard (10 µL of 1 mg/mL dapagliflozin-d5) and 1 mL methanol. The samples were vigorously vortexed and centrifuged at 10,770× g for 3 min. Next, 100 µL of the upper layer was transferred to a polypropylene tube with 10 µL of internal standard (dapagliflozin-d5, Toronto Research, Toronto, ON, Canada) and 300 µL of acetonitrile. After vigorous vortexing and centrifugation at 2191× g for 1 min, 200 µL of the upper layer was transferred to another polypropylene tube with 200 µL of ammonium acetate (0.1%, w/v). A 20 µL aliquot of the solution was finally injected into the LC–MS/MS system; 0.1% ammonium acetate and methanol were used for the mobile phase. The gradient elution mode was applied (methanol proportion ranging between 57.5% and 90% in 5 min) with a constant flow rate of 0.4 mL/min. Dapagliflozin was quantified using the multiple reaction monitoring (MRM) mode. The produced transitions were m/z 426.47 → 166.84 for dapagliflozin and m/z 431.50 → 166.85 for dapagliflozin-d5. The linear function of dapagliflozin concentration ranged from 1 to 400 ng/mL with regression correlation coefficients of the calibration curves (R) greater than 0.999. The intra-day and inter-day CV values were below 15%. The lower limit of quantification (LLOQ) using this method was 1 ng/mL.
Linagliptin-^13C-d3 (TLC Pharmaceutical Standards Ltd., Newmarket, ON, Canada) was used as the internal standard, and 100 µL of plasma was added to a glass tube containing the internal standard (10 µL of 1 mg/mL linagliptin-^13C-d3) and 1 mL methanol. The samples were vigorously vortexed and centrifuged at 10,770× g for 3 min. Next, 100 µL of the upper layer was transferred to a polypropylene tube with 10 µL of the internal standard and 400 µL of methanol. After vigorous vortexing and centrifugation at 2191× g for 1 min, 100 µL of the upper layer was transferred to another polypropylene tube containing 300 µL of formic acid in distilled water (0.1%, w/v). A 20 µL aliquot of the solution was finally injected into the LC–MS/MS system; 0.1% ammonium formate in distilled water and acetonitrile was used as the mobile phase. […] Linagliptin was quantified using MRM mode. […] The intra-day and inter-day CV values were <15%. The LLOQ with this method was 0.04 ng/mL. […]

P-gp = conditions: cited from earlier work
[2] = tested on: cytochrome P450 3A4 enzyme; conditions: in humans; cited from earlier work
[3] = cited from earlier work; for food effect: previous studies
[4] = tested on: uridine diphosphate glucuronosyltransferase 1A9; conditions: cited from earlier work
SGLT2:SGLT1 receptor = conditions: compared with empagliflozin; cited from earlier work
[5] = IC: co-administered single oral doses of Forxiga 10 mg and Trajenta 5 mg, fasted healthy males, 0 to 72 h, mean ± SD
[6] = IC: co-administered single oral doses of Forxiga 10 mg and Trajenta 5 mg, fasted healthy males, mean ± SD
[7] = IC: co-administered single oral doses of Forxiga 10 mg and Trajenta 5 mg, fasted healthy males, median (range)

Intra-Participant CV% of AUCinf [1] | Intra-Participant CV% of AUClast [1] | Intra-Participant CV% of Cmax [1] | AUC(0-inf) ([1]; po, 5 mg) | AUC(0-t) ([1]; po, 5 mg) | Cmax ([1]; po, 5 mg) | Tmax ([1]; po, 5 mg) | half-life ([1]; po, 5 mg) | AUC(0-t) [1, 5] | AUC(0-inf) [1, 6] | Cmax [1, 6] | half-life [1, 6] | Tmax [1, 7] | SMILES | food effect [3] | further results
12.67% | 7.96% | 27.58% | 268 ± 88 ng·h/mL | 157 ± 35.9 ng·h/mL | 4.2 ± 2.01 ng/mL | 1.5 h | 54.3 ± 12.3 h | 155 ± 30.4 ng·h/mL | 266 ± 78.7 ng·h/mL | 3.95 ± 1.42 ng/mL | 54.9 ± 13.6 h | 2.5 h | CC#CCn1c(N2CCC[C@@H](N)C2)nc2c1c(=O)n(Cc1nc(C)c3ccccc3n1)c(=O)n2C [linagliptin] | no possible food effect | P-gp inhibition (P-gp; at the therapeutic levels): does not inhibit P-gp; Km of P-gp associated transport (P-gp): 187 µM; substrate for P-glycoprotein (P-gp) (P-gp; in humans): known substrate; substrate for cytochrome P450 3A4 enzyme [2]: known substrate; oral bioavailability [3]: approximately 30%; kidney excretion ([3]; human, in vivo): 5%; time to reach steady-state level ([3]; therapeutic dose (5 mg)): ≤ 4 days
– | – | – | – | – | – | – | – | – | – | – | – | – | N#C[C@@H]1C[C@@H]2C[C@@H]2N1C(=O)[C@@H](N)C12CC3CC(CC(O)(C3)C1)C2 [saxagliptin] | – | half-life, metabolite ([3]; metabolite of saxagliptin): 3.1 h
7.35% | 7.91% | 20.49% | 516 ± 98.3 ng·h/mL | 466 ± 99.3 ng·h/mL | 168 ± 42.1 ng/mL | 0.75 h | 12.8 ± 3.84 h | 456 ± 92.8 ng·h/mL | 500 ± 93.9 ng·h/mL | 161 ± 42 ng/mL | 11.3 ± 3.39 h | 0.75 h | CCOc1ccc(Cc2cc([C@@H]3O[C@H](CO)[C@@H](O)[C@H](O)[C@H]3O)ccc2Cl)cc1 [dapagliflozin] | no possible food effect | CL/F ([1]; FCDP: single oral dose IN-C009 (dapagliflozin 10 mg/linagliptin 5 mg), fasted healthy males, mean ± SD): 20.01 ± 3.6 L/h; CL/F [1, 6]: 20.67 ± 3.89 L/h; P-gp inhibitor status (P-gp; in vitro studies): not an inhibitor; P-gp substrate status (P-gp; in vitro studies): weak substrate; half-life (t1/2) [3]: 8.1 to 12.2 h; fraction metabolized by uridine diphosphate glucuronosyltransferase 1A9 [4]: approximately 65%; SGLT2:SGLT1 receptor selectivity (SGLT2:SGLT1 receptor): lower SGLT2:SGLT1 receptor selectivity
